The results in this text go back to patent US10392391B2 (Vertex Pharmaceuticals Incorporated, priority 2012, dated 2019).

The target of this assay is ATR kinase (full-length ATR) (Homo sapiens (Human), UniProt Q13535). In words: ATR inhibition assay (radioactive-phosphate incorporation). The assay is classed as biochemical. In a few lines:
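Radiometric 33P incorporation by 5 nM full-length ATR into 800 μM target peptide with 10 μM [γ-33P]ATP, in 50 mM Tris/HCl pH 7.5, 10 mM MgCl2, 1 mM DTT, 7% DMSO, 25° C. Compound pre-incubated 10 minutes; reaction stopped after 24 hours, captured on phosphocellulose. Ki(app) from non-linear regression of initial rates.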

The mark [1] stands for this setting: Ki(app), 5 nM full-length ATR, 10 μM ATP, 25° C.

Read-outs that look alike come from different tables or passages of the source.

Chain of ATR kinase (full-length ATR) (Q13535 whole entry): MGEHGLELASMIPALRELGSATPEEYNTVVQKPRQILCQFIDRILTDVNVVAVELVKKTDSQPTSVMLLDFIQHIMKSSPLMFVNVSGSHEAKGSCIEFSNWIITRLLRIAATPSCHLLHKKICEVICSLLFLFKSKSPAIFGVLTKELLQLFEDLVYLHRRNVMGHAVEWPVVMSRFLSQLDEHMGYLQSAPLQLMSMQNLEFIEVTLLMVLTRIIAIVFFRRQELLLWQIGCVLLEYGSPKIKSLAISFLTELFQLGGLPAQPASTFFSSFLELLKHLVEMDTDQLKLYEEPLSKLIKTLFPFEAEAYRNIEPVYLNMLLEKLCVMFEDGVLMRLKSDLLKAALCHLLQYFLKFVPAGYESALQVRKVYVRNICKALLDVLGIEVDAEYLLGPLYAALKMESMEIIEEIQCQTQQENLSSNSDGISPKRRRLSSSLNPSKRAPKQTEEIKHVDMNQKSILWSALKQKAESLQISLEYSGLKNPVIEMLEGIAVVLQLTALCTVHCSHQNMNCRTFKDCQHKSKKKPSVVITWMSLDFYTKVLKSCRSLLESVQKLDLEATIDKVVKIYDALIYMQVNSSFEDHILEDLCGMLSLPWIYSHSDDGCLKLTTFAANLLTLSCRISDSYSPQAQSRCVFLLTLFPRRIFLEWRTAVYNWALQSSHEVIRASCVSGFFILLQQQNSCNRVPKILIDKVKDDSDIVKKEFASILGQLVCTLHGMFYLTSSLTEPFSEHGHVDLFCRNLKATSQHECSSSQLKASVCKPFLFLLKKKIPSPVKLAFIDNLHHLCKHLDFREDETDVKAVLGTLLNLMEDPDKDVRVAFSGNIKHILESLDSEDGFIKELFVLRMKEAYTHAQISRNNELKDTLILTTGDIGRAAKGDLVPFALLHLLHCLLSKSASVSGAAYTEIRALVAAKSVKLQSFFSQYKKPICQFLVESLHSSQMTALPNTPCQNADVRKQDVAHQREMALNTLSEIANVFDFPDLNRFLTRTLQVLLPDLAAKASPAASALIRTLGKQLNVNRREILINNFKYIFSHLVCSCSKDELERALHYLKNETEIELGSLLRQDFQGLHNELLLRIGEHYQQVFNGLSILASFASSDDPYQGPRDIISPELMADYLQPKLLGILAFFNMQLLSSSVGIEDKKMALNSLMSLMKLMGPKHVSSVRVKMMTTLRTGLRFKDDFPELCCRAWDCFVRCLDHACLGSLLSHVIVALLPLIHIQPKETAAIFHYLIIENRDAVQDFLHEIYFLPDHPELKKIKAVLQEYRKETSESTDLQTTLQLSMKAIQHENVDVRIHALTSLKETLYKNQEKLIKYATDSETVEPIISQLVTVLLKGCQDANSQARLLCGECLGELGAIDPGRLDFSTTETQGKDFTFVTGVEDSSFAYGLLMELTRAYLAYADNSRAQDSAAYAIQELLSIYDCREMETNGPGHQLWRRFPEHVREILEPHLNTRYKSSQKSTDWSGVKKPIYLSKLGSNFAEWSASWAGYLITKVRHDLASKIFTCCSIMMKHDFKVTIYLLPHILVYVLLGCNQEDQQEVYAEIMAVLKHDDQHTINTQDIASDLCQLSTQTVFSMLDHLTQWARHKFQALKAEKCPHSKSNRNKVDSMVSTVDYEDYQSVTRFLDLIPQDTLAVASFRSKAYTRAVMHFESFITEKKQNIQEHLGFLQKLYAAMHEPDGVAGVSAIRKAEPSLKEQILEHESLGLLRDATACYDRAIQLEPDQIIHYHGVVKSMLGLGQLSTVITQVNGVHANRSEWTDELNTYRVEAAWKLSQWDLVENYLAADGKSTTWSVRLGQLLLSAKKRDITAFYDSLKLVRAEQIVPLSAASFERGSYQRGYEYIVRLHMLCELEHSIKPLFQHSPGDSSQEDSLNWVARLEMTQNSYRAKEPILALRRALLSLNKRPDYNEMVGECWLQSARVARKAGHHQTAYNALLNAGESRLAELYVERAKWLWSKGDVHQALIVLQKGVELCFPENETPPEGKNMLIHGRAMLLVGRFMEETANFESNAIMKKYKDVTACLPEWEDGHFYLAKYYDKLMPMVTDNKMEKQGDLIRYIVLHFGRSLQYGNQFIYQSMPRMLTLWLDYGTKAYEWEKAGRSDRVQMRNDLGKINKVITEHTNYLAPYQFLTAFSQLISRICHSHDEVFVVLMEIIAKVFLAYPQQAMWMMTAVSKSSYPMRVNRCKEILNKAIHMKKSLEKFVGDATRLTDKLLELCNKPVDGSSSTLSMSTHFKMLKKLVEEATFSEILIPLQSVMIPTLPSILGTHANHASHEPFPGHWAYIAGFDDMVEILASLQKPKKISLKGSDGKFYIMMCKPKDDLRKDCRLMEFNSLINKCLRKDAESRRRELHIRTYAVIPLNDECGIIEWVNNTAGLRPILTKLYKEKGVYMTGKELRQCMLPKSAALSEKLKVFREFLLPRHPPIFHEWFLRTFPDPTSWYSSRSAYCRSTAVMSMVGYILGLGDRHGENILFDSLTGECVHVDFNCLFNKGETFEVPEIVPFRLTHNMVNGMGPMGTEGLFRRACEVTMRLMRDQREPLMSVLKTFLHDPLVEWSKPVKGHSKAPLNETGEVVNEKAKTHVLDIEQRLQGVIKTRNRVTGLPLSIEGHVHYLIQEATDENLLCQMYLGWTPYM

As to `Cn1nccc1-c1ccncc1NC(=O)c1c(N)nn2cc(F)cnc12` [I-C-57, 2-amino-6-fluoro-N-(4-(1-methyl-1H-pyrazol-5-yl)pyridin-3-yl)pyrazolo[1,5-a]pyrimidine-3-carboxamide], the Ki under setting [1] lay within 10 to 1000 nM.

`Nc1nn2cc(F)cnc2c1C(=O)Nc1cncc(F)c1N1CCC(C(=O)N2CCC2)CC1` [I-G-8, 2-amino-N-(4-(4-(azetidine-1-carbonyl)piperidin-1-yl)-5-fluoropyridin-3-yl)-6-fluoropyrazolo[1,5-a]pyrimidine-3-carboxamide]: the Ki under setting [1] is 10 to 1000 nM.

Turning to `CN1CC2CN(c3c(Cl)cncc3NC(=O)c3c(N)nn4cc(F)cnc34)CC2C1` (stereo not shown) [I-N-286, 2-amino-N-(5-chloro-4-(5-methylhexahydropyrrolo[3,4-c]pyrrol-2(1H)-yl)pyridin-3-yl)-6-fluoropyrazolo[1,5-a]pyrimidine-3-carboxamide], under setting [1], the Ki was 10 to 1000 nM.

In the case of `CN1CCOC2(CCN(c3ccncc3NC(=O)c3c(N)nn4cc(F)cnc34)CC2)C1` [I-N-183, 2-amino-6-fluoro-N-(4-(4-methyl-1-oxa-4,9-diazaspiro[5.5]undecan-9-yl)pyridin-3-yl)pyrazolo[1,5-a]pyrimidine-3-carboxamide], the Ki under setting [1] lay within 10 to 1000 nM.

As to `CN(C)C(=O)C1CCN(c2c(F)cncc2NC(=O)c2c(N)nn3cc(F)cnc23)CC1` [I-G-29, 2-amino-N-(4-(4-(dimethylcarbamoyl)piperidin-1-yl)-5-fluoropyridin-3-yl)-6-fluoropyrazolo[1,5-a]pyrimidine-3-carboxamide], the Ki under setting [1] lay within 10 to 1000 nM.

On to `Nc1nn2cc(F)cnc2c1C(=O)Nc1cncc(F)c1N1CCC(C(=O)N2CC(F)(F)C2)CC1` [I-G-73, 2-amino-N-(4-(4-(3,3-difluoroazetidine-1-carbonyl)piperidin-1-yl)-5-fluoropyridin-3-yl)-6-fluoropyrazolo[1,5-a]pyrimidine-3-carboxamide], for which the Ki under setting [1] lay in the range of 10 to 1000 nM.

With `CN1CC2CC1CN2C(=O)C1CCN(c2c(F)cncc2NC(=O)c2c(N)nn3cc(F)cnc23)CC1` (stereo not shown) [I-G-53, 2-amino-6-fluoro-N-(5-fluoro-4-(4-(5-methyl-2,5-diazabicyclo[2.2.1]heptane-2-carbonyl)piperidin-1-yl)pyridin-3-yl)pyrazolo[1,5-a]pyrimidine-3-carboxamide], the Ki under setting [1] is 10 to 1000 nM.

With `CN1CCN(C(=O)C2(C)CCN(c3c(F)cncc3NC(=O)c3c(N)nn4cc(F)cnc34)CC2)CC1` [I-G-54, 2-amino-6-fluoro-N-(5-fluoro-4-(4-methyl-4-(4-methylpiperazine-1-carbonyl)piperidin-1-yl)pyridin-3-yl)pyrazolo[1,5-a]pyrimidine-3-carboxamide], the Ki under setting [1] was 10 to 1000 nM.

With `CN1CCC(C(=O)N2CCN(c3c(F)cncc3NC(=O)c3c(N)nn4cc(F)cnc34)CC2)C1` (stereo not shown) [I-N-156, 2-amino-6-fluoro-N-(5-fluoro-4-(4-(1-methylpyrrolidine-3-carbonyl)piperazin-1-yl)pyridin-3-yl)pyrazolo[1,5-a]pyrimidine-3-carboxamide], under setting [1], the Ki was 10 to 1000 nM.

`COC1(CN(C)C)CCN(c2ccncc2NC(=O)c2c(N)nn3cc(Cl)cnc23)CC1` [I-N-46, 2-amino-6-chloro-N-(4-(4-((dimethylamino)methyl)-4-methoxypiperidin-1-yl)pyridin-3-yl)pyrazolo[1,5-a]pyrimidine-3-carboxamide]: under setting [1], the Ki fell in the range of 10 to 1000 nM.

`Nc1nn2cc(F)cnc2c1C(=O)Nc1cnccc1-c1ccc(C(=O)N2CCNCC2)cc1` [I-C-44, 2-amino-6-fluoro-N-(4-(4-(piperazine-1-carbonyl)phenyl)pyridin-3-yl)pyrazolo[1,5-a]pyrimidine-3-carboxamide]: the Ki under setting [1] was 10 to 1000 nM.

In the case of `CN1CCN(C2CCN(c3c(F)cncc3NC(=O)c3c(N)nn4cc(F)cnc34)CC2)C(=O)C1` [I-N-151, 2-amino-6-fluoro-N-(5-fluoro-4-(4-(4-methyl-2-oxopiperazin-1-yl)piperidin-1-yl)pyridin-3-yl)pyrazolo[1,5-a]pyrimidine-3-carboxamide], the Ki lay within 1000 to 5000 nM.

Take `Nc1nn2cc(F)cnc2c1C(=O)Nc1cnccc1N1CCN(S(=O)(=O)C2CCOC2)CC1` (stereo not shown) [I-N-179, 2-amino-6-fluoro-N-(4-(4-((tetrahydrofuran-3-yl)sulfonyl)piperazin-1-yl)pyridin-3-yl)pyrazolo[1,5-a]pyrimidine-3-carboxamide]: the Ki under setting [1] was 10 to 1000 nM.

`Cc1ccnn1-c1ccncc1NC(=O)c1c(N)nn2cc(F)cnc12` [I-N-223, 2-amino-6-fluoro-N-(4-(5-methyl-1H-pyrazol-1-yl)pyridin-3-yl)pyrazolo[1,5-a]pyrimidine-3-carboxamide]: under setting [1], the Ki lay within 10 to 1000 nM.

For `CCOc1ccncc1NC(=O)c1c(N)nn2cc(F)cnc12` [I-O-14, 2-amino-N-(4-ethoxypyridin-3-yl)-6-fluoropyrazolo[1,5-a]pyrimidine-3-carboxamide], the Ki under setting [1] is 10 to 1000 nM.

In the case of `Cc1nc(C(=O)N2CCN(C)CC2)ccc1-c1ccncc1NC(=O)c1c(N)nn2cc(F)cnc12` [I-C-39, 2-amino-6-fluoro-N-(2-methyl-6-(4-methylpiperazine-1-carbonyl)-[3,4′-bipyridin]-3′-yl)pyrazolo[1,5-a]pyrimidine-3-carboxamide], the Ki under setting [1] fell in the range of 10 to 1000 nM.

Turning to `CCN1CCN(c2ccncc2NC(=O)c2c(N)nn3cc(F)cnc23)CC1` [I-N-17, 2-amino-N-(4-(4-ethylpiperazin-1-yl)pyridin-3-yl)-6-fluoropyrazolo[1,5-a]pyrimidine-3-carboxamide], the Ki under setting [1] lay within 10 to 1000 nM.

On to `CO[C@H]1CCN(C(=O)C2CCN(c3c(F)cncc3NC(=O)c3c(N)nn4cc(F)cnc34)CC2)C1` [I-G-99, (S)-2-amino-6-fluoro-N-(5-fluoro-4-(4-(3-methoxypyrrolidine-1-carbonyl)piperidin-1-yl)pyridin-3-yl)pyrazolo[1,5-a]pyrimidine-3-carboxamide], for which the Ki under setting [1] fell in the range of 10 to 1000 nM.

Take `CN1CCC(Oc2ccncc2NC(=O)c2c(N)nn3cc(Cl)cnc23)CC1` [I-O-64, 2-amino-6-chloro-N-(4-((1-methylpiperidin-4-yl)oxy)pyridin-3-yl)pyrazolo[1,5-a]pyrimidine-3-carboxamide]: the Ki under setting [1] is 10 to 1000 nM.

As for `Nc1nn2cc(F)cnc2c1C(=O)Nc1cnccc1N1CCN(S(=O)(=O)C2CCOCC2)CC1` [I-N-177, 2-amino-6-fluoro-N-(4-(4-((tetrahydro-2H-pyran-4-yl)sulfonyl)piperazin-1-yl)pyridin-3-yl)pyrazolo[1,5-a]pyrimidine-3-carboxamide], the Ki under setting [1] lay in the range of 10 to 1000 nM.

For `Nc1nn2cc(F)cnc2c1C(=O)Nc1cncc(F)c1N1CCN2C(=O)CCC[C@H]2C1` [I-N-279, (S)-2-amino-6-fluoro-N-(5-fluoro-4-(6-oxohexahydro-1H-pyrido[1,2-a]pyrazin-2(6H)-yl)pyridin-3-yl)pyrazolo[1,5-a]pyrimidine-3-carboxamide], the Ki under setting [1] lay in the range of 10 to 1000 nM.

Take `Nc1nn2cc(F)cnc2c1C(=O)Nc1cncc(F)c1N1CCC(S(=O)(=O)N2CCC2)CC1` [I-N-169, 2-amino-N-(4-(4-(azetidin-1-ylsulfonyl)piperidin-1-yl)-5-fluoropyridin-3-yl)-6-fluoropyrazolo[1,5-a]pyrimidine-3-carboxamide]: the Ki under setting [1] lay within 10 to 1000 nM.

As for `COCCN1CCN(c2c(F)cncc2NC(=O)c2c(N)nn3cc(F)cnc23)CC1` [I-N-127, 2-amino-6-fluoro-N-(5-fluoro-4-(4-(2-methoxyethyl)piperazin-1-yl)pyridin-3-yl)pyrazolo[1,5-a]pyrimidine-3-carboxamide], under setting [1], the Ki lay in the range of 10 to 1000 nM.

For `CN1CCC(S(=O)(=O)N2CCN(c3ccncc3NC(=O)c3c(N)nn4cc(F)cnc34)CC2)CC1` [I-N-188, 2-amino-6-fluoro-N-(4-(4-((1-methylpiperidin-4-yl)sulfonyl)piperazin-1-yl)pyridin-3-yl)pyrazolo[1,5-a]pyrimidine-3-carboxamide], the Ki under setting [1] fell in the range of 10 to 1000 nM.

For `CN1CCC(NC(=O)C2CCN(c3c(F)cncc3NC(=O)c3c(N)nn4cc(F)cnc34)CC2)C1` (stereo not shown) [I-G-24, 2-amino-6-fluoro-N-(5-fluoro-4-(4-((1-methylpyrrolidin-3-yl)carbamoyl)piperidin-1-yl)pyridin-3-yl)pyrazolo[1,5-a]pyrimidine-3-carboxamide], the Ki under setting [1] is 10 to 1000 nM.

Turning to `Nc1nn2cc(F)cnc2c1C(=O)Nc1cncc(Cl)c1N1CCN2CCN(C3COC3)CC2C1` (stereo not shown) [I-N-38, 2-amino-N-(5-chloro-4-(8-(oxetan-3-yl)hexahydro-1H-pyrazino[1,2-a]pyrazin-2(6H)-yl)pyridin-3-yl)-6-fluoropyrazolo[1,5-a]pyrimidine-3-carboxamide], the Ki under setting [1] is 10 to 1000 nM.

In the case of `Nc1nn2cc(F)cnc2c1C(=O)Nc1cnccc1CN1CCCC1=O` [I-C-76, 2-amino-6-fluoro-N-(4-((2-oxopyrrolidin-1-yl)methyl)pyridin-3-yl)pyrazolo[1,5-a]pyrimidine-3-carboxamide], the Ki was in the range of 1000 to 5000 nM.

As to `Nc1nn2cc(F)cnc2c1C(=O)Nc1cnccc1N1CCC(S(=O)(=O)C2COC2)CC1` [I-N-200, 2-amino-6-fluoro-N-(4-(4-(oxetan-3-ylsulfonyl)piperidin-1-yl)pyridin-3-yl)pyrazolo[1,5-a]pyrimidine-3-carboxamide], the Ki under setting [1] lay within 10 to 1000 nM.

`CN1CC[C@@H](OC2CCN(c3ccncc3NC(=O)c3c(N)nn4cc(F)cnc34)CC2)C1` [I-N-131]: the Ki was 10 to 1000 nM.

As to `Nc1nn2cc(Cl)cnc2c1C(=O)Nc1cnccc1N1CCC(N2CC[C@@H](F)C2)CC1` [I-N-98, (R)-2-amino-6-chloro-N-(4-(4-(3-fluoropyrrolidin-1-yl)piperidin-1-yl)pyridin-3-yl)pyrazolo[1,5-a]pyrimidine-3-carboxamide], the Ki under setting [1] lay in the range of 10 to 1000 nM.

Regarding `Cc1nc(N2CCN(C)CC2)ccc1-c1ccncc1NC(=O)c1c(N)nn2cc(F)cnc12` [I-C-40, 2-amino-6-fluoro-N-(2-methyl-6-(4-methylpiperazin-1-yl)-[3,4′-bipyridin]-3′-yl)pyrazolo[1,5-a]pyrimidine-3-carboxamide], under setting [1], the Ki lay in the range of 10 to 1000 nM.
